Eleven compounds from patent publication US10654882B2, “Nicotinamide mononucleotide derivative and salt thereof, method for producing same, topical skin preparation, cosmetic and food additive” (SHOWA DENKO K.K., priority 2015, dated 2020) can be followed below.

The data set deals with three-dimensional cultured human skin model (EPI-606X). Description: Skin permeability test. The protocol:
A three-dimensional cultured human skin model (EPI-606X, Kurabo Industries Ltd., area: 3.8 cm^2) was placed in a 6-well plate containing PBS solution (1 mL) so that the lower portion thereof was submerged. The human skin model was then allowed to stand undisturbed for 30 minutes in an incubator under conditions of 37° C. and a carbon dioxide concentration of 5%. Next, the PBS solution in the lower wells of the skin model was replaced with HBSS(−) solution (Hanks solution, 1 mL) (to be referred to as the “receiver liquid”) and the sample solution (700 μL) obtained above was administered onto the skin model. The skin model was then allowed to stand undisturbed for 24 hours in an incubator under conditions of 37° C. and a carbon dioxide concentration of 5%.
After allowing to stand undisturbed for 24 hours, the sample solution on the skin model was removed using a pipette followed by removing the skin model from the wells and washing with PBS (−) solution. Next, a section of the skin model was cut out and placed in a 2 mL tube. Methanol (1 mL) and stainless steel beads (Tomy Co., Ltd., diameter: 5.5 mm) were added to the tube followed by crushing the section using a Multi Beads Shocker (Yasui Kikai Corp.) under conditions of 10 seconds at 2000 rpm for 10 cycles.
Following crushing, the resulting solution was transferred to a 2 mL Eppendorf tube and centrifuged for 5 minutes at 12000 rpm followed by filtering the supernatant with a filter (pore diameter: 0.22 μm) to obtain a skin model extract.
Next, the amounts of test substance in the skin model extract and receiver liquid were quantified for each test substance under the previously described HPLC Analysis Conditions 1. The total amount of test substance absorbed by the skin model in each well was calculated from the quantified value of test substance in the skin model extract. In addition, the quantified value of test substance in the receiver liquid was used as the amount of test substance that permeated the skin model. The total value A (μg) of the total amount of test substance absorbed by the skin model and the amount of test substance that permeated the skin model was then calculated.
The permeation rate (%) through the skin model for each test substance administered to the skin model was calculated according to the following equation (i). Moreover, the aforementioned skin permeability test was carried out three times for each test substance followed by calculation of each permeation rate (%). […] Furthermore, the value shown in front of the (±) symbol in the column entitled “Permeation Rate (%)” indicates the average value of the three results, while the number after the (±) symbol indicates the range of variation of the three results. Permeation rate (%)=(A/1400(amount of test substance administered to skin model) (μg)))×100 (i)

Where [1] appears, read: 0.2% by weight sample solution in PBS(-), pH 7.4, 700 μL on skin model, 24 hours, 37° C., average ± range of variation of three results.
Where [2] appears, read: skin model, 24 hours, compared with non-acylated β-NMN or among the examples.

Like-named read-outs stand apart in the source and are kept apart here.

For the compound `CCCCCCCCCCCCCCCC(=O)O[C@@H]1[C@H](OC(=O)CCCCCCCCCCCCCCC)[C@@H](COP(=O)([O-])O)O[C@H]1[n+]1cccc(C(N)=O)c1` [Example 2, 2′,3′-dipalmitoyl-β-nicotinamide mononucleotide], the “Permeation Rate (%)” value under setting [1] came out at 41 ± 1.7%. Besides, under setting [2], the “Permeation rate, comparison in words” value was “particularly high”. With `CCCCCCCCCCCCCCCC(=O)O[C@@H]1[C@H](OC(=O)CCCCCCCCCCCCCCC)[C@@H](COP(=O)([O-])[O-])O[C@H]1[n+]1cccc(C(N)=O)c1.[Na+]` [Example 11, 2′,3′-dipalmitoyl-β-NMN sodium salt], the “Permeation rate, comparison in words” value is reported as “high permeation rate in comparison with the non-acylated β-NMN of Comparative Example 2”. In addition, the “Permeation Rate (%)” value (pH 7.4) stood at 41 ± 2.7%.

On to `CCCCCCCC(=O)OC1C(COP(=O)([O-])O)OC([n+]2cccc(C(N)=O)c2)C1OC(=O)CCCCCCC` (stereo not drawn) [Example 6, 2′,3′-dioctanoyl-β-NMN], for which the “Permeation Rate (%)” value under setting [1] is on record as 38 ± 4.7%. Take `CCCCCCCCCCCC(=O)O[C@H]1[C@@H](O)[C@H]([n+]2cccc(C(N)=O)c2)O[C@@H]1COP(=O)([O-])O` [Example 3, 3′-lauroyl-β-NMN]: the “Permeation rate, comparison in words” value is “particularly high”. Besides, under “pH 7.4”, the “Permeation Rate (%)” value came out at 35 ± 4.7%. For `CCCCCCCC(=O)O[C@H]1[C@@H](O)[C@H]([n+]2cccc(C(N)=O)c2)O[C@@H]1COP(=O)([O-])O` [Example 5, 3′-octanoyl-β-NMN], for the setting “pH 7.4”, the “Permeation Rate (%)” value is on record as 31 ± 4.7%.

Consider `NC(=O)c1ccc[n+]([C@@H]2O[C@H](COP(=O)([O-])O)[C@@H](O)[C@H]2O)c1` [Comparative Example 2, β-nicotinamide mononucleotide, reference compound], for which the “Permeation Rate (%)” value (pH 7.4) is reported as 15 ± 0.4%. On the same count and under the same terms, for `CCCCCC(=O)O[C@H]1[C@@H](O)[C@H]([n+]2cccc(C(N)=O)c2)O[C@@H]1COP(=O)([O-])O` [Example 7, 3′-hexanoyl-β-NMN] the value was 29 ± 4.7%. Consider `CCCCCCCCCCCC(=O)O[C@@H]1[C@H](OC(=O)CCCCCCCCCCC)[C@@H](COP(=O)([O-])O)O[C@H]1[n+]1cccc(C(N)=O)c1` [Example 4, 2′,3′-dilauroyl-β-NMN], for which the “Permeation rate, comparison in words” value is on record as “particularly high”. Besides, under “pH 7.4”, the “Permeation Rate (%)” value is on record as 40 ± 4.7%. Turning to `CCCCCC(=O)O[C@@H]1[C@H](OC(=O)CCCCC)[C@@H](COP(=O)([O-])O)O[C@H]1[n+]1cccc(C(N)=O)c1` [Example 8, 2′,3′-dihexanoyl-β-NMN], the “Permeation Rate (%)” value (pH 7.4) was 37 ± 2.7%.

As to `CCCCCCCCCCCCCCCC(=O)O[C@H]1[C@@H](O)[C@H]([n+]2cccc(C(N)=O)c2)O[C@@H]1COP(=O)([O-])O` [Example 1, 3′-palmitoyl-β-nicotinamide mononucleotide], the “Permeation Rate (%)” value under setting [1] is given as 40 ± 4.7%. Further, the “Permeation rate, comparison in words” value under setting [2] is recorded as “particularly high”. For `CC(=O)O[C@@H]1[C@H](OC(C)=O)[C@@H](COP(=O)([O-])O)O[C@H]1[n+]1cccc(C(N)=O)c1` [Synthesis Example 1, 2′,3′-diacetyl-β-nicotinamide mononucleotide, reference compound], in that order: 16 ± 1.7% and “equal to that of the non-acylated β-NMN of Comparative Example 2”.
